# Assay results: article PMC6985722 (Antimicrobial Agents and Chemotherapy, 2020)
# Experiments:
# [1] = system: RSV-A (panel of 10 clinical strains); test: In vitro susceptibility of RSV by plaque assay, RSV-A; format: cell-based; conditions: human respiratory syncytial virus
# Method: Previous RSV challenge studies achieved antiviral efficacy with peripheral blood trough exposure levels over 3× the protein binding-adjusted in vitro EC90 ([12]). Based on the phase 1 PK data, this level of exposure was predicted to be achieved on or after the first dose in the majority of subjects with a 200-mg dose and to be met or exceeded on or after the first dose in all subjects with a 350-mg dose. The in vitro EC90 was determined using a panel of clinical isolates of RSV (Table S7).
# EC50 range (nM) EC90 range (nM)
# EC50 and EC 90 were determined by plaque assay.
# EC50, 50% effective concentration; EC90, 90% effective concentration; RSV, respiratory
# [2] = preclinical evaluations, including juvenile toxicology studies; cited from earlier work
smiles,measurement,setting,value
NCc1ccc2c(c1)nc(CN1C(=O)C3(CC3)c3ccc(F)cc31)n2CCCC(F)(F)F [RV521],EC50,[1]; read-out: EC50 range,0.3 to 1 nM
same,EC90,[1]; read-out: EC90 range,2.5 to 5.6 nM
same,Safety profile,[2],good safety profile
